Patent US20060122275A1, “Agentfor reducing side effects of diclofenac” (priority 2002, published 2006)

Tests used:
[1] = target: IP receptor (Homo sapiens, UniProt P43119); conditions: stated in words, no test described; cited from earlier work
[2] = target: T1, EP3 receptor (Homo sapiens, UniProt P43115); conditions: stated in words, no test described; cited from earlier work
T1 sequence (P43115 1-390): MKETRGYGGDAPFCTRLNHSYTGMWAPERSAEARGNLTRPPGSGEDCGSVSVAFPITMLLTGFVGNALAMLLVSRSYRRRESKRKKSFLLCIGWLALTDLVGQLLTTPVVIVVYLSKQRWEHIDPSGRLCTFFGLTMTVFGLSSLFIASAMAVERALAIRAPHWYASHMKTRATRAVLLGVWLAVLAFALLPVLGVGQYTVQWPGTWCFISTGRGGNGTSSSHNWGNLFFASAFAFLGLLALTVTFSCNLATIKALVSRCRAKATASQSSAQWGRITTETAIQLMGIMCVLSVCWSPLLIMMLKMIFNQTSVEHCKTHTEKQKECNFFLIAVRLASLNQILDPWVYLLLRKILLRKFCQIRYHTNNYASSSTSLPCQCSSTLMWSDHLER

[3] = target: EP4 receptor (Homo sapiens, UniProt P35408); conditions: stated in words, no test described; cited from earlier work
EP4 receptor, sequence (P35408 whole entry): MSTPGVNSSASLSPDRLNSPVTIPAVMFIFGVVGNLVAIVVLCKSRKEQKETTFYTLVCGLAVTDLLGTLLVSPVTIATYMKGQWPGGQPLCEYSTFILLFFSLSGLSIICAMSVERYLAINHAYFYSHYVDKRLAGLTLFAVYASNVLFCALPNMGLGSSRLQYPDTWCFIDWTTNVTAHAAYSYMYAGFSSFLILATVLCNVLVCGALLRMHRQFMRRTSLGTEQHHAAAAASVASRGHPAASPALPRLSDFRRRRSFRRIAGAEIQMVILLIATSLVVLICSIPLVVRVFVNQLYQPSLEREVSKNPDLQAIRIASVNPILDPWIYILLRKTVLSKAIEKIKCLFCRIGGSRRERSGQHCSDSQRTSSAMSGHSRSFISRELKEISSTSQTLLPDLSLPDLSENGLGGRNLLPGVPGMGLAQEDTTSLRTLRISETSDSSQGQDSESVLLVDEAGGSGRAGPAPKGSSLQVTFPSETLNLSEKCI

[4] = target: T2, EP1 receptor (Homo sapiens, UniProt P34995); conditions: stated in words, no test described; cited from earlier work
T2 sequence (P34995 1-402): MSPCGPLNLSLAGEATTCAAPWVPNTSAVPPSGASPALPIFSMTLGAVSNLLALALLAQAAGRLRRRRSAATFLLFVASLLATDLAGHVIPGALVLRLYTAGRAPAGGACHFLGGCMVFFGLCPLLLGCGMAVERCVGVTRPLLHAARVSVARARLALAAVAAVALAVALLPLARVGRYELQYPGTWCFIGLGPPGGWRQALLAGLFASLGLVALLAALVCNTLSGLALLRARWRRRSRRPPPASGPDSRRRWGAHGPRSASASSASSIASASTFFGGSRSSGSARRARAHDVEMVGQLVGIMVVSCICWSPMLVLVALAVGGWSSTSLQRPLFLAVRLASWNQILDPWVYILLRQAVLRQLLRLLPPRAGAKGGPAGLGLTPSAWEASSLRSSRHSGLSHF

[5] = system: glycerol-induced nephropathy; assay: Effect of ornoprostil on glycerol-induced nephropathy; assay type: in vivo, SPF/Crj line male rats; conditions: serum 48 hours after glycerol, rats
Description: SPF/Crj line male rats (9 week-old) were measured for their body weight and then divided into groups in such a manner that average of body weights of respective groups became almost uniform. A 50% glycerol solution (medium: physiological saline) (10 ml/kg) was administered by subcutaneous injection to each rat which had been abstained from water for 48 hours (±2 hours) but under feeding, and about 1.5 ml of blood was collected 48 hours thereafter from jugular vein under ether anesthesia. […] Water was provided 2 hours after the glycerol administration. The thus collected blood was centrifuged (about 4° C., 3,000 rpm, 15 minutes) to obtain serum. The thus obtained serum was subjected to the measurement of […] (to be referred to as UN) (urease-G1DH method) and creatinine (to be referred to as CRE) (creatininase-F-DAOS method) using a biochemical automatic analyzer (AU 400 (trade name), Olympus Optical).

[6] = system: Mycobacterium butyricum-induced inflammation, squeaking reaction; assay: Analgesic effect in inflammation model (squeaking reaction); assay type: in vivo, Lew/Crj line male rats; conditions: OU administered vs OU un-administered group
Description: After measuring body weight of Lew/Crj line male rats, Mycobacterium butyricum cells suspended in liquid paraffin was administered by intracutaneous injection into the sole of left-side hind leg of each animal, under ether anesthesia at a dose of 0.1 ml/animal, thereby inducing inflammation. Also, this day was used as the 1st day of the inflammation induction treatment. […] Also, they were fasted for 16 to 24 hours under free water taking from the previous day of the measurement. […] A rat which was squeaking reaction-negative once or more by the 4 times of judgment after the sample liquid administration was judged analgesic effect-positive, and efficacy ratio (the number of animals having analgesic effect/the number of tested animals) was calculated. In addition, ulcer inhibition ratio was calculated in the same manner as described in (1).

[7] = system: acid secretion; conditions: stated in words, no test described; cited from earlier work
[8] = system: gastrointestinal mucous membrane; conditions: stated in words, no test described; cited from earlier work
[9] = GC (subcutaneous) + OU (3 μg) oral
[10] = GC (subcutaneous) + OU (10 μg) oral

IP receptor, sequence (P43119 whole entry): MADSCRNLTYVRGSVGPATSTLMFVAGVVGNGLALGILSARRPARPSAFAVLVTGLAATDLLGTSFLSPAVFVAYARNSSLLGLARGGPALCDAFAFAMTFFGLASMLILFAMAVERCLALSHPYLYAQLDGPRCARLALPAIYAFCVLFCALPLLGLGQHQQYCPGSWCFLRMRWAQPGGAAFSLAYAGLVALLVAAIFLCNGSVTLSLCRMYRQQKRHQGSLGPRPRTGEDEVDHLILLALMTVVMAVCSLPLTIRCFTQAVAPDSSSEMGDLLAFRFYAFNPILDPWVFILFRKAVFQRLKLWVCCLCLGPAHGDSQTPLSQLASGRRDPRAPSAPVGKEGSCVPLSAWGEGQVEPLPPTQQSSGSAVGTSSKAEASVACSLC

Structure (SMILES) | Affinity for IP receptor [1] | Affinity for EP3 receptor [2] | Affinity for EP4 receptor [3] | Affinity for EP1 receptor [4] | CRE [5, 9] [mg/dL] | UN [5, 9] [mg/dL] | CRE [5, 10] [mg/dL] | UN [5, 10] [mg/dL] | Influence of OU administration upon the analgesic effect of NSAID [6] | Acid secretion inhibitory activity [7] | Site protection activity [8]
CCCCC(C)(O)C/C=C/[C@H]1[C@H](O)CC(=O)[C@@H]1CCCCCCC(=O)O (mixture of isomers) [misoprostol active body] | hardly has affinity | strong | strong | weak |  |  |  |  |  |  | 
CCCC[C@H](C)C[C@H](O)/C=C/[C@H]1[C@H](O)CC(=O)[C@@H]1CC(=O)CCCCC(=O)OC [ornoprostil, 17S,20-dimethyl-6-oxo-prostaglandin E1 methyl ester] |  |  |  |  | 1.38 | 89.7 | 1.03 | 79.9 | did not exert influence | weak | strong
